# Test results as given in PubChem BioAssay AID2060495 (Molecular Pharmacology Branch, DTP, NCI, 2025).
# System: 521955-158-R2-J5-PDC complex spheroid viability
# Assay: Anticancer human tumor 521955-158-R2-J5-PDC patient-derived pancreatic carcinoma cell line growth inhibition [GQUAD]
# Conditions: for IC50: curve of first compound; for viability, T/C: stronger effect = lower value
# Outline: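 Multi-cell-type spheroids of tumor cells with HUVEC and mesenchymal stem cells, treated with drug combinations. Concentrations descend in half-log steps from near clinical Cmax, or from 10 microM where Cmax is unknown; viability read-out.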
# [1] = second compound 0.0316 µM, first compound 0.0316 µM
# [2] = second compound 0.0316 µM, first compound 0.1 µM
# [3] = second compound 0.0316 µM, first compound 0.316 µM
# [4] = second compound 0.0316 µM, first compound 1 µM
# [5] = second compound 0.0316 µM, first compound 3.16 µM
# [6] = second compound 0.0316 µM, first compound 10 µM
# [7] = second compound 0.1 µM, first compound 0.0316 µM
# [8] = second compound 0.1 µM, first compound 0.1 µM
# [9] = second compound 0.1 µM, first compound 0.316 µM
# [10] = second compound 0.1 µM, first compound 1 µM
# [11] = second compound 0.1 µM, first compound 3.16 µM
# [12] = second compound 0.1 µM, first compound 10 µM
# [13] = second compound 0.316 µM, first compound 0.0316 µM
# [14] = second compound 0.316 µM, first compound 0.1 µM
# [15] = second compound 0.316 µM, first compound 0.316 µM
# [16] = second compound 0.316 µM, first compound 1 µM
# [17] = second compound 0.316 µM, first compound 3.16 µM
# [18] = second compound 0.316 µM, first compound 10 µM
# [19] = second compound 1 µM, first compound 0.0316 µM
# [20] = second compound 1 µM, first compound 0.1 µM
# [21] = second compound 1 µM, first compound 0.316 µM
# [22] = second compound 1 µM, first compound 1 µM
# [23] = second compound 1 µM, first compound 3.16 µM
# [24] = second compound 1 µM, first compound 10 µM
# [25] = second compound 3.16 µM, first compound 0.0316 µM
# [26] = second compound 3.16 µM, first compound 0.1 µM
# [27] = second compound 3.16 µM, first compound 0.316 µM
# [28] = second compound 3.16 µM, first compound 1 µM
# [29] = second compound 3.16 µM, first compound 3.16 µM
# [30] = second compound 3.16 µM, first compound 10 µM
# [31] = second compound 10 µM, first compound 0.0316 µM
# [32] = second compound 10 µM, first compound 0.1 µM
# [33] = second compound 10 µM, first compound 0.316 µM
# [34] = second compound 10 µM, first compound 1 µM
# [35] = second compound 10 µM, first compound 3.16 µM
# [36] = second compound 10 µM, first compound 10 µM
# 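Note: spheroids exposed to agents for one week before reading.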
# 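Throughout, for viability, T/C: 100% = DMSO vehicle control viability.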
smiles,measurement,setting,value
CC1COCCN1c1cc(C2(O)CC3CCC(C2)O3)c2cnn(-c3ccn[nH]3)c2n1 (stereo unspecified) + Cc1[nH]c2ccc(F)cc2c1-c1nc2c3cccnc3c3ncccc3c2[nH]1,IC50,second compound 0.0316 µM,< 31.6 nM
same,IC50,second compound 0.1 µM,< 31.6 nM
same,IC50,second compound 0.316 µM,< 31.6 nM
same,IC50,second compound 1 µM,< 31.6 nM
same,IC50,second compound 3.16 µM,< 31.6 nM
same,IC50,second compound 10 µM,< 31.6 nM
same,"viability, T/C",[1],32.6%
same,"viability, T/C",[2],10.8%
same,"viability, T/C",[3],13.3%
same,"viability, T/C",[4],19.7%
same,"viability, T/C",[5],19.2%
same,"viability, T/C",[6],8.74%
same,"viability, T/C",[7],32.5%
same,"viability, T/C",[8],11.2%
same,"viability, T/C",[9],12.6%
same,"viability, T/C",[10],19.3%
same,"viability, T/C",[11],20.1%
same,"viability, T/C",[12],8.59%
same,"viability, T/C",[13],28.1%
same,"viability, T/C",[14],11.6%
same,"viability, T/C",[15],12.2%
same,"viability, T/C",[16],16.5%
same,"viability, T/C",[17],20.5%
same,"viability, T/C",[18],7.43%
same,"viability, T/C",[19],34.3%
same,"viability, T/C",[20],10.7%
same,"viability, T/C",[21],12.4%
same,"viability, T/C",[22],17.4%
same,"viability, T/C",[23],22.9%
same,"viability, T/C",[24],10.7%
same,"viability, T/C",[25],38.7%
same,"viability, T/C",[26],10.7%
same,"viability, T/C",[27],13.9%
same,"viability, T/C",[28],22.5%
same,"viability, T/C",[29],25.4%
same,"viability, T/C",[30],8.16%
same,"viability, T/C",[31],29.5%
same,"viability, T/C",[32],10.6%
same,"viability, T/C",[33],15%
same,"viability, T/C",[34],20.7%
same,"viability, T/C",[35],26.7%
same,"viability, T/C",[36],6.74%
CC1COCCN1c1cc(C2(O)CC3CCC(C2)O3)c2cnn(-c3ccn[nH]3)c2n1 (stereo unspecified) + Cc1cnc(CNC(=O)c2c(=O)c3ccc(N4CCCN(C)CC4)nc3n3c2sc2ccccc23)cn1,IC50,second compound 0.0316 µM,< 31.6 nM
same,IC50,second compound 0.1 µM,< 31.6 nM
same,IC50,second compound 0.316 µM,< 31.6 nM
same,IC50,second compound 1 µM,< 31.6 nM
same,IC50,second compound 3.16 µM,< 31.6 nM
same,IC50,second compound 10 µM,< 31.6 nM
same,"viability, T/C",[1],23.8%
same,"viability, T/C",[2],11.8%
same,"viability, T/C",[3],15.9%
same,"viability, T/C",[4],13.4%
same,"viability, T/C",[5],18.2%
same,"viability, T/C",[6],8.84%
same,"viability, T/C",[7],23.1%
same,"viability, T/C",[8],13%
same,"viability, T/C",[9],11.2%
same,"viability, T/C",[10],13.4%
same,"viability, T/C",[11],15.3%
same,"viability, T/C",[12],8.46%
same,"viability, T/C",[13],23.8%
same,"viability, T/C",[14],14.9%
same,"viability, T/C",[15],12.8%
same,"viability, T/C",[16],14.5%
same,"viability, T/C",[17],15.3%
same,"viability, T/C",[18],5.38%
same,"viability, T/C",[19],18.4%
same,"viability, T/C",[20],13.7%
same,"viability, T/C",[21],11.1%
same,"viability, T/C",[22],12.1%
same,"viability, T/C",[23],10.5%
same,"viability, T/C",[24],4.62%
same,"viability, T/C",[25],14.2%
same,"viability, T/C",[26],13.5%
same,"viability, T/C",[27],10.7%
same,"viability, T/C",[28],9.81%
same,"viability, T/C",[29],6.85%
same,"viability, T/C",[30],0.99%
same,"viability, T/C",[31],14.2%
same,"viability, T/C",[32],13.7%
same,"viability, T/C",[33],10.6%
same,"viability, T/C",[34],8.67%
same,"viability, T/C",[35],6.98%
same,"viability, T/C",[36],0.78%
COc1cccc2c1C(=O)c1c(O)c3c(c(O)c1C2=O)CC(O)(C(=O)CO)CC3OC1CC(N)C(O)C(C)O1 (stereo unspecified) + CN(C)c1ccc(Nc2c3ccc(NC(=O)CCN4CCCC4)cc3nc3cc(NC(=O)CCN4CCCC4)ccc23)cc1,IC50,second compound 0.0316 µM,164 nM
same,IC50,second compound 0.1 µM,221 nM
same,IC50,second compound 0.316 µM,208 nM
same,IC50,second compound 1 µM,186 nM
same,IC50,second compound 3.16 µM,176 nM
same,IC50,second compound 10 µM,422 nM
same,"viability, T/C",[1],85.5%
same,"viability, T/C",[2],56.6%
same,"viability, T/C",[3],31.2%
same,"viability, T/C",[4],37.4%
same,"viability, T/C",[5],3.76%
same,"viability, T/C",[6],2.73%
same,"viability, T/C",[7],97.3%
same,"viability, T/C",[8],68.8%
same,"viability, T/C",[9],37.8%
same,"viability, T/C",[10],29.9%
same,"viability, T/C",[11],2.6%
same,"viability, T/C",[12],2.75%
same,"viability, T/C",[13],101%
same,"viability, T/C",[14],67.6%
same,"viability, T/C",[15],34.3%
same,"viability, T/C",[16],33.3%
same,"viability, T/C",[17],1.27%
same,"viability, T/C",[18],2.99%
same,"viability, T/C",[19],85.9%
same,"viability, T/C",[20],67.9%
same,"viability, T/C",[21],29.1%
same,"viability, T/C",[22],30.7%
same,"viability, T/C",[23],0.97%
same,"viability, T/C",[24],3%
same,"viability, T/C",[25],83%
same,"viability, T/C",[26],58.2%
same,"viability, T/C",[27],34.1%
same,"viability, T/C",[28],36.5%
same,"viability, T/C",[29],1.22%
same,"viability, T/C",[30],1.89%
same,"viability, T/C",[31],61.9%
same,"viability, T/C",[32],61.7%
same,"viability, T/C",[33],52.9%
same,"viability, T/C",[34],33.1%
same,"viability, T/C",[35],1.41%
same,"viability, T/C",[36],1.9%
